Data on seven compounds can be found in patent publication US20090143279A1 (priority 2007, published 2009).

Molecules are shown by their SMILES. Where two headings read alike, the source gives them in different places.

In assay [1] the test system is reactive oxygen species. The format is cell-based, mouse. The following applies: for ROS (composite Z-score): normalized score vs mock-treated (DMSO) wells.
In assay [2] the test system is mitochondrial membrane potential. The format is cell-based, mouse. The following applies: for ΔΨm (composite Z-score): normalized score vs mock-treated (DMSO) wells.
Assay [3] relates to cellular dehydrogenase activity. The following applies: for MTT (composite Z-score): normalized score vs mock-treated (DMSO) wells.
Assay [4] concerns C2C12 myotubes. The following applies: for Viability (composite Z-score): normalized score vs mock-treated (DMSO) wells.
Assay [5] has as its system cytochrome c. The assay is classed as cell-based, mouse. The following applies: for cyt c (composite Z-score): normalized score vs mock-treated (DMSO) wells.
Assay [6] relates to mtOXPHOS transcripts. The format is cell-based, mouse. The following applies: for mitoOX (composite Z-score): normalized score vs mock-treated (DMSO) wells.
The subject of assay [7] is nuOXPHOS transcripts. The format is cell-based, mouse. The following applies: for nucOX (composite Z-score): normalized score vs mock-treated (DMSO) wells.
The subject of assay [8] is OXPHOS gene expression. The format is cell-based, mouse. The following applies: for GE-HTS (composite Z-score): normalized score vs mock-treated (DMSO) wells.
[9] abbreviates: normalized composite Z-score vs mock-treated (DMSO) wells, Conc 20 μM.
The mark [10] stands for this setting: composite Z-score vs mock-treated (DMSO) wells, concentration of each compound in μM.
The mark [11] stands for this setting: 20 μM, composite Z-score vs DMSO.
Setting [12] is: composite Z-score vs mock-treated (DMSO) wells, Conc 20 μM.

`COc1c2c(cc3occ(-c4ccc5c(c4)OCO5)c(=O)c13)OC(C)(C)C=C2` [methyl robustone, reference compound]: the ROS in assay [1] (setting [9]) is −0.347. For the same compound, the ΔΨm in assay [2] (setting [9]) was 0.715. This compound also showed an MTT in assay [3] (setting [9]) of −0.344. This compound also had a Viability in assay [4] (setting [9]) of 0.848. For the same compound, the cyt c in assay [5] (setting [9]) was determined as 0.373. The same compound had a mitoOX in assay [6] (setting [9]) of −0.063. In assay [7] (setting [9]), this compound yielded a nucOX of 0.075. This compound also yielded a GE-HTS in assay [8] (setting [9]) of 0.033.
In assay [1] (setting [10]), `C/C1=C2/[N-][C@H]([C@H](CC(N)=O)[C@@]2(C)CCC(=O)NC[C@@H](C)OP(=O)([O-])O[C@H]2[C@@H](O)[C@@H](n3cnc4cc(C)c(C)cc43)O[C@@H]2CO)[C@]2(C)N=C(/C(C)=C3N=C(/C=C4N=C1[C@@H](CCC(N)=O)C\4(C)C)[C@@H](CCC(N)=O)[C@]\3(C)CC(N)=O)[C@@H](CCC(N)=O)[C@]2(C)CC(N)=O.[Co]` [cobalamine] gave an ROS of 2.944. The compound further came in with a ΔΨm in assay [2] (setting [10]) of 0.097. In assay [3] (setting [10]), this compound registered an MTT of −1.369. The compound also showed a Viability in assay [4] (setting [10]) of −0.821. The same compound gave a cyt c in assay [5] (setting [10]) of −0.617. In assay [6] (setting [10]), this compound gave a mitoOX of −0.393. The compound further had a nucOX in assay [7] (setting [10]) of −0.373. Also, the GE-HTS in assay [8] (setting [10]) was −0.402.
In assay [1] (setting [11]), `CC[C@@H](C(=O)[C@@H](C)[C@@H](O)[C@H](C)[C@@H]1O[C@@H]([C@@H](CC)C(=O)O)CC[C@@H]1C)[C@H]1O[C@]2(C=C[C@@H](O)[C@]3(CC[C@@](C)([C@H]4CC[C@](O)(CC)[C@H](C)O4)O3)O2)[C@H](C)C[C@@H]1C` [salinomycin, reference compound] yielded an ROS of −3.111. In assay [2] (setting [11]), this compound showed a ΔΨm of 2.976. Besides, the MTT in assay [3] (setting [11]) was −2.918. Further, the Viability in assay [4] (setting [11]) was −0.247. Further, the cyt c in assay [5] (setting [11]) is recorded as −0.566. In addition, the mitoOX in assay [6] (setting [11]) was −3.359. The nucOX in assay [7] (setting [11]) was −0.345. The GE-HTS in assay [8] (setting [11]) was −1.400.
`COC(=O)c1c(OC)cc2c(c1C)Oc1c(Cl)c(O)c(Cl)c(C)c1C(=O)O2` [gangaleoidin]: the ROS in assay [1] (setting [9]) is 1.356. In assay [2] (setting [9]), the ΔΨm is −1.233. In assay [3] (setting [9]), this compound came in with an MTT of −1.213. The compound further returned a Viability in assay [4] (setting [9]) of 0.889. Moreover, the cyt c in assay [5] (setting [9]) is −0.876. The mitoOX in assay [6] (setting [9]) is listed as −0.310. The nucOX in assay [7] (setting [9]) was −0.587. For the same compound, the GE-HTS in assay [8] (setting [9]) was −0.512.
`COc1ccccc1-c1cc(=O)c2cccc(OC)c2o1` [8,2′-dimethoxyflavone]: in assay [1] (Conc 20 μM), the “ROS (composite Z-score)” value turned out to be 1.219. Further, the “ΔΨm (composite Z-score)” value in assay [2] (Conc 20 μM) is given as 1.282. Moreover, in assay [3] (Conc 20 μM), the “MTT (composite Z-score)” value is −0.556. In addition, the “Viability (composite Z-score)” value in assay [4] (Conc 20 μM) is −1.096. The “cyt c (composite Z-score)” value in assay [5] (Conc 20 μM) worked out at 0.864. Also, the “mitoOX (composite Z-score)” value in assay [6] (Conc 20 μM) was −0.811. Also, in assay [7] (Conc 20 μM), the “nucOX (composite Z-score)” value is −0.414. Further, the “GE-HTS (composite Z-score)” value in assay [8] (Conc 20 μM) is reported as −0.593.
For `CC(=O)OC1CC2C(C)(C)[C@@H](O)CC[C@]2(C)C2CC[C@]3(C)[C@H](c4ccoc4)OC(=O)[C@H]4O[C@]43[C@]12C` (stereo partly drawn) [3beta-hydroxydeoxodihydrogedunin], the ROS in assay [1] (setting [12]) was 0.170. In addition, the ΔΨm in assay [2] (setting [12]) was determined as 0.674. This compound also registered an MTT in assay [3] (setting [12]) of −0.540. Also, the Viability in assay [4] (setting [12]) is recorded as −0.364. In assay [5] (setting [12]), this compound registered a cyt c of 0.591. This compound also gave a mitoOX in assay [6] (setting [12]) of −0.302. The nucOX in assay [7] (setting [12]) is reported as −0.648. Besides, the GE-HTS in assay [8] (setting [12]) is on record as −0.585.
For `CC(C)c1ccc2c(c1)CCC1[C@](C)(CN)CCC[C@]21C.O=S(=O)(O)O` (some centres unmarked) [18-aminoabieta-8,11,13-triene sulfate], in assay [1] (Conc 20 μM), the “ROS (composite Z-score)” value is reported as 2.176. Besides, the “ΔΨm (composite Z-score)” value in assay [2] (Conc 20 μM) is −0.519. In assay [3] (Conc 20 μM), the “MTT (composite Z-score)” value is on record as −0.762. Moreover, in assay [4] (Conc 20 μM), the “Viability (composite Z-score)” value is listed as −0.143. Moreover, the “cyt c (composite Z-score)” value in assay [5] (Conc 20 μM) was found to be 0.507. Moreover, in assay [6] (Conc 20 μM), the “mitoOX (composite Z-score)” value is −0.462. For the same compound, in assay [7] (Conc 20 μM), the “nucOX (composite Z-score)” value was −0.771. Besides, the “GE-HTS (composite Z-score)” value in assay [8] (Conc 20 μM) is −0.727.
